Source: ChEMBL document CHEMBL3612057, “Discovery of indolizines containing triazine moiety as new leads for the development of antitumoral agents targeting mitotic events” (2015)
Calls of active or inactive are those of the source. The rule behind the calls is not given here.

Columns and labels:
CCRF-CEM = experiment: Cytotoxicity against human CCRF-CEM cells assessed as growth inhibition at 10 uM after 24 hrs by SRB assay; format: functional; settings: read-out: GI
HL-60(TB) = experiment: Cytotoxicity against human HL-60(TB) cells assessed as growth inhibition at 10 uM after 24 hrs by SRB assay; format: functional
K562 = experiment: Cytotoxicity against human K562 cells assessed as growth inhibition at 10 uM after 24 hrs by SRB assay; format: functional
RPMI-8226 = experiment: Cytotoxicity against human RPMI8226 cells assessed as growth inhibition at 10 uM after 24 hrs by SRB assay; format: functional; settings: RPMI-8226, 24 h, read-out: GI
SR = experiment: Cytotoxicity against human SR cells assessed as growth inhibition at 10 uM after 24 hrs by SRB assay; format: functional; settings: read-out: GI
A549 = experiment: Cytotoxicity against human A549 cells assessed as growth inhibition at 10 uM after 24 hrs by SRB assay; format: functional; settings: A549, 24 h, read-out: GI
HOP-62 = experiment: Cytotoxicity against human HOP62 cells assessed as growth inhibition at 10 uM after 24 hrs by SRB assay; format: functional; settings: HOP-62, 24 h, read-out: GI
HOP-92 = experiment: Cytotoxicity against human HOP92 cells assessed as growth inhibition at 10 uM after 24 hrs by SRB assay; format: functional
NCI-H226 = experiment: Cytotoxicity against human NCI-H226 cells assessed as growth inhibition at 10 uM after 24 hrs by SRB assay; format: functional
NCI-H460 = experiment: Cytotoxicity against human NCI-H460 cells assessed as growth inhibition at 10 uM after 24 hrs by SRB assay; format: functional
NCI-H522 = experiment: Cytotoxicity against human NCI-H522 cells assessed as growth inhibition at 10 uM after 24 hrs by SRB assay; format: functional; settings: NCI-H522, 24 h, read-out: GI
HCT-116 = experiment: Cytotoxicity against human HCT116 cells assessed as growth inhibition at 10 uM after 24 hrs by SRB assay; format: functional; settings: HCT-116, 24 h, read-out: GI
SF-295 = experiment: Cytotoxicity against human SF295 cells assessed as growth inhibition at 10 uM after 24 hrs by SRB assay; format: functional; settings: SF-295, 24 h, read-out: GI
SF-539 = experiment: Cytotoxicity against human SF539 cells assessed as growth inhibition at 10 uM after 24 hrs by SRB assay; format: functional; settings: SF-539, 24 h, read-out: GI
SNB-75 = experiment: Cytotoxicity against human SNB75 cells assessed as growth inhibition at 10 uM after 24 hrs by SRB assay; format: functional; settings: SNB-75, 24 h, read-out: GI
U-251 = experiment: Cytotoxicity against human U251 cells assessed as growth inhibition at 10 uM after 24 hrs by SRB assay; format: functional
Malme-3M = experiment: Cytotoxicity against human MALME-3M cells assessed as growth inhibition at 10 uM after 24 hrs by SRB assay; format: functional; settings: read-out: GI
MDA-MB-435 = experiment: Cytotoxicity against human MDA-MB-435 cells assessed as growth inhibition at 10 uM after 24 hrs by SRB assay; format: functional
SK-MEL-28 = experiment: Cytotoxicity against human SK-MEL-28 cells assessed as growth inhibition at 10 uM after 24 hrs by SRB assay; format: functional; settings: SK-MEL-28, 24 h, read-out: GI
SK-MEL-5 = experiment: Cytotoxicity against human SK-MEL-5 cells assessed as growth inhibition at 10 uM after 24 hrs by SRB assay; format: functional
UACC-257 = experiment: Cytotoxicity against human UACC257 cells assessed as growth inhibition at 10 uM after 24 hrs by SRB assay; format: functional
UACC-62 = experiment: Cytotoxicity against human UACC62 cells assessed as growth inhibition at 10 uM after 24 hrs by SRB assay; format: functional; settings: UACC-62, 24 h, read-out: GI
OVCAR-3 = experiment: Cytotoxicity against human OVCAR3 cells assessed as growth inhibition at 10 uM after 24 hrs by SRB assay; format: functional
OVCAR-4 = experiment: Cytotoxicity against human OVCAR4 cells assessed as growth inhibition at 10 uM after 24 hrs by SRB assay; format: functional
OVCAR-8 = experiment: Cytotoxicity against human OVCAR8 cells assessed as growth inhibition at 10 uM after 24 hrs by SRB assay; format: functional; settings: OVCAR-8, 24 h, read-out: GI
NCI/ADR-RES = experiment: Cytotoxicity against human NCI/ADR-RES cells assessed as growth inhibition at 10 uM after 24 hrs by SRB assay; format: functional
SK-OV-3 = experiment: Cytotoxicity against human SKOV3 cells assessed as growth inhibition at 10 uM after 24 hrs by SRB assay; format: functional; settings: SK-OV-3, 24 h, read-out: GI
786-0 = experiment: Cytotoxicity against human 786-0 cells assessed as growth inhibition at 10 uM after 24 hrs by SRB assay; format: functional
ACHN = experiment: Cytotoxicity against human ACHN cells assessed as growth inhibition at 10 uM after 24 hrs by SRB assay; format: functional; settings: read-out: GI
CAKI-1 = experiment: Cytotoxicity against human CAKI-1 cells assessed as growth inhibition at 10 uM after 24 hrs by SRB assay; format: functional
RXF 393 = experiment: Cytotoxicity against human RXF393 cells assessed as growth inhibition at 10 uM after 24 hrs by SRB assay; format: functional; settings: RXF 393, 24 h, read-out: GI
TK-10 = experiment: Cytotoxicity against human TK10 cells assessed as growth inhibition at 10 uM after 24 hrs by SRB assay; format: functional
PC-3 = experiment: Cytotoxicity against human PC3 cells assessed as growth inhibition at 10 uM after 24 hrs by SRB assay; format: functional; settings: PC-3, 24 h, read-out: GI
MCF7 = experiment: Cytotoxicity against human MCF7 cells assessed as growth inhibition at 10 uM after 24 hrs by SRB assay; format: functional; settings: MCF7, 24 h, read-out: GI
MDA-MB-231 = experiment: Cytotoxicity against human MDA-MB-231 cells assessed as growth inhibition at 10 uM after 24 hrs by SRB assay; format: functional; settings: MDA-MB-231, 24 h, read-out: GI
[1] = Cytotoxicity against human Hs578T cells assessed as growth inhibition at 10 uM after 24 hrs by SRB assay; format: functional; settings: Hs-578T, read-out: GI
T47D = experiment: Cytotoxicity against human T47D cells assessed as growth inhibition at 10 uM after 24 hrs by SRB assay; format: functional
Ovis aries = species: Ovis aries; experiment: Inhibition of sheep tubulin polymerization at 100 uM by fluorescence assay

## COc1nc(OC)nc(-c2cc(C(=O)c3cc(OC)c(OC)c(OC)c3)n3c(C)cccc23)n1
CCRF-CEM
  inhibition of growth at 10 µM: 10%
HL-60(TB); HL-60, 24 h, read-out: GI
  inhibition of growth at 10 µM: 33%
K562; K562, 24 h, read-out: GI
  inhibition of growth at 10 µM: 45%
RPMI-8226
  inhibition of growth at 10 µM: 10%
SR
  inhibition of growth at 10 µM: 67%
A549
  inhibition of growth at 10 µM: 17%
HOP-62
  inhibition of growth at 10 µM: 34%
HOP-92
  growth inhibition (GI): inactive
NCI-H226
  growth inhibition (GI): inactive
NCI-H460
  growth inhibition (GI): inactive
NCI-H522
  inhibition of growth at 10 µM: 56%
HCT-116
  inhibition of growth at 10 µM: 15%
SF-295
  inhibition of growth at 10 µM: 15%
SF-539
  inhibition of growth at 10 µM: 14%
SNB-75
  inhibition of growth at 10 µM: 67%
U-251
  growth inhibition (GI): inactive
Malme-3M
  inhibition of growth at 10 µM: 37%
MDA-MB-435; MDA-MB-435, 24 h, read-out: GI
  inhibition of growth at 10 µM: 86%
SK-MEL-28
  inhibition of growth at 10 µM: 14%
SK-MEL-5; SK-MEL-5, 24 h, read-out: GI
  inhibition of growth at 10 µM: 41%
UACC-257
  growth inhibition (GI): inactive
UACC-62
  inhibition of growth at 10 µM: 30%
OVCAR-3; OVCAR-3, 24 h, read-out: GI
  inhibition of growth at 10 µM: 19%
OVCAR-4
  growth inhibition (GI): inactive
OVCAR-8
  inhibition of growth at 10 µM: 12%
NCI/ADR-RES; read-out: GI
  inhibition of growth at 10 µM: 15%
SK-OV-3
  inhibition of growth at 10 µM: 18%
786-0
  growth inhibition (GI): inactive
ACHN
  inhibition of growth at 10 µM: 30%
CAKI-1; CAKI-1, 24 h, read-out: GI
  inhibition of growth at 10 µM: 11%
RXF 393
  inhibition of growth at 10 µM: 31%
TK-10
  growth inhibition (GI): inactive
PC-3
  inhibition of growth at 10 µM: 19%
MCF7
  inhibition of growth at 10 µM: 55%
MDA-MB-231
  inhibition of growth at 10 µM: 17%
[1]
  inhibition of growth at 10 µM: 17%
T47D
  growth inhibition (GI): inactive
Ovis aries
  inhibition: inactive

## COc1nc(OC)nc(-c2cc(C(=O)c3ccc(Cl)cc3)n3ccccc23)n1
CCRF-CEM
  inhibition of growth at 10 µM: 11%
HL-60(TB)
  growth inhibition (GI): inactive
K562
  growth inhibition (GI): inactive
RPMI-8226
  inhibition of growth at 10 µM: 13%
SR
  inhibition of growth at 10 µM: 26%
A549
  inhibition of growth at 10 µM: 21%
HOP-62
  inhibition of growth at 10 µM: 77%
HOP-92
  growth inhibition (GI): inactive
NCI-H226
  growth inhibition (GI): inactive
NCI-H460; NCI-H460, 24 h, read-out: GI
  inhibition of growth at 10 µM: 20%
NCI-H522
  inhibition of growth at 10 µM: 47%
HCT-116
  inhibition of growth at 10 µM: 26%
SF-295
  inhibition of growth at 10 µM: 33%
SF-539
  inhibition of growth at 10 µM: 39%
SNB-75
  inhibition of growth at 10 µM: -3%
U-251; U-251, 24 h, read-out: GI
  inhibition of growth at 10 µM: 44%
Malme-3M
  inhibition of growth at 10 µM: 30%
MDA-MB-435
  growth inhibition (GI): inactive
SK-MEL-28
  inhibition of growth at 10 µM: 12%
SK-MEL-5
  growth inhibition (GI): inactive
UACC-257
  growth inhibition (GI): inactive
UACC-62
  inhibition of growth at 10 µM: 14%
OVCAR-3
  growth inhibition (GI): inactive
OVCAR-4
  growth inhibition (GI): inactive
OVCAR-8
  inhibition of growth at 10 µM: 24%
NCI/ADR-RES
  growth inhibition (GI): inactive
SK-OV-3
  inhibition of growth at 10 µM: 55%
786-0; 786-0, 24 h, read-out: GI
  inhibition of growth at 10 µM: 31%
ACHN
  inhibition of growth at 10 µM: 56%
CAKI-1
  growth inhibition (GI): inactive
RXF 393
  inhibition of growth at 10 µM: 37%
TK-10; TK-10, 24 h, read-out: GI
  inhibition of growth at 10 µM: 12%
PC-3
  inhibition of growth at 10 µM: 19%
MCF7
  inhibition of growth at 10 µM: 19%
MDA-MB-231
  inhibition of growth at 10 µM: 43%
[1]
  inhibition of growth at 10 µM: 46%
T47D; read-out: GI
  inhibition of growth at 10 µM: 19%
Ovis aries
  inhibition: inactive
